pEC50: −log10 of the molar value. Read-outs that look alike come from different tables or passages of the source.

Series [1] relates to SARS-CoV-2 clinically isolated strain. The conditions noted are these: cited from earlier work; for pEC50: Vero cells, Yao et al.
A short description of series [2]: Solubility in propylene glycol and solvent mixtures by LC-HR-MS. The series is classed as physicochemical. Conditions: for Accuracy (ratio of measured concentration to calculated concentration): propylene glycol, 40° C. The procedure: Chloroquine and hydroxychloroquine were synthesized according to published procedures at WuXi AppTec (Wuhan, China). […] The solubility of HCQ in propylene glycol (PG) was evaluated by preparing formulations at various concentrations and assessing their solubility by performing liquid chromatography-high resolution-mass spectrometry (LC-HR-MS). The solubility of HCQ in PG was measured at 40° C. and atmospheric pressure (~100 kPa) -Table 1a.
The solubility of HCQ in different solvent mixtures comprising propylene glycol (PG); glycerol and/or water was evaluated by preparing formulations and assessing the solubility of HCQ by performing liquid chromatography-high resolution-mass spectrometry (LC-HR-MS) as shown in Table 1b.

Series [3] is described as follows: Aerosol particle size distribution (Aerodynamic Particle Sizer). The series is classed as physicochemical. Conditions: thermal aerosol from 100 mg/mL in propylene glycol, heater 200-220° C. The procedure: A liquid formulation containing a solution of hydroxychloroquine in propylene glycol at a concentration of 100 mg/mL was prepared and filled into a consumable cartridge.
The liquid formulation was nebulized using a device comprising a mesh heating element as described in WO2018153608 (A1). Aerosol from the liquid formulation was generated by thermal aerosolization. The temperature of the heater was maintained between 200-220° C. A programmable dual syringe pump (PDSP) with a simulated inhalation regimen of 55 mL delivered in 3 sec puff duration and 30 sec interval (including the subsequent discharge from the pump during piston down stroke) was used to transfer the aerosol. The PDSP pump was attached to a SUPER SESI (Fossilion Technologies, Madrid, SP) interfaced with Q Exactive HF system (Thermo Fisher Scientific, Waltham, MA, USA) as shown in FIG. 2.
The particle size distribution of the aerosols was measured using the TSI 3321 Aerodynamic Particle Sizer (APS, TSI Incorporated, Shoreview, MN, USA). To reach the operational flowrate of 5 L/min and to stay within the limits of detection concerning large particle number densities obtained in the experiment, the […] was connected with a 3302A Aerosol Diluter (TSI Incorporated), upstream of the APS using a 30 cm conductive tube with a 1-cm inner diameter (FIG. 3). […]

Series [4] is described as follows: Thermal decomposition during thermal aerosolization (LC-HR-MS). The series is classed as physicochemical. The conditions noted are these: LC-HR-MS of aerosol trapped on Cambridge pad filter. The procedure: Using the described aerosol generation and characterization setup, the aerosol produced from the device was pushed through the Cambridge filter pad connected to an impinger filled with 5 mL of ethanol to assess the transfer amount of hydroxychloroquine from the liquid to the aerosol. Compound extraction from the Cambridge filter pads was performed by adding 5 mL of ethanol from the impinger and another 5 mL of fresh ethanol to the filter pad. The two fractions were combined (total volume of 10 mL) for quantification. Chemical analyses for drug solubility and transfer rate assessment were performed by liquid chromatography equipped with a HILIC BEH amide column (50 × 3 mm, 1.7 µm, Waters, Manchester, UK) coupled to high resolution accurate mass spectrometry (Vanquish Duo - Q Exactive HF system, LC-HR-MS, ThermoFisher Scientific, Waltham, MA, USA). Mobile phases were composed of acetonitrile containing 0.1% formic acid and 10 mM ammonium formate. Samples were diluted to fit the calibration curve built from 9-calibrant levels (5-100 ng/mL). A volume of 5 µL diluted solution was injected. Mass spectrometry detection was realized in positive electrospray ionization with a mass resolution of 60,000 by scanning full scan mass from m/z 50-350.

The subject of another series is 2019-nCoV. The conditions noted are these: block of COVID-19 infection in vitro, Wang et al.; read-out: half-maximal effective concentration (EC50); cited from earlier work.

Turning to hydroxychloroquine, the pEC50 was 5.21 in series [1] (24 hours) and 6.14 in series [1] (48 hours). The “in vitro EC50” value in series [1] (value from Yao et al.) was 0.242 mg/L. For the same compound, the “in vitro EC90” value in series [1] (value from Yao et al.) was 1.68 mg/L. In addition, the Solubility is 151 mg/mL in series [2] (Mix 1: propylene glycol 75%, glycerol 20%, water 5%); 141 mg/mL in series [2] (Mix 2: propylene glycol 75%, glycerol 15%, water 10%); 42 mg/mL in series [2] (Mix 3: propylene glycol 45%, glycerol 45%, water 10%); 150 mg/mL in series [2] (Mix 4: propylene glycol 90%, glycerol 10%, water 0%); 324 mg/mL in series [2] (Mix 5: propylene glycol 90%, glycerol 0%, water 10%); 261 mg/mL in series [2] (Mix 6: propylene glycol 85%, glycerol 0%, water 15%). For the same compound, the Solubility in series [2] (Mix 7: propylene glycol 95%, glycerol 0%, water 5%) came out at 322 mg/mL; in series [2] (Mix 8: propylene glycol 100, glycerol 0%, water 0%), 139 mg/mL. Also, the “Accuracy (ratio of measured concentration to calculated concentration)” value was 78% in series [2] (calculated concentration 1.3 mg/mL); 103% in series [2] (calculated concentration 10.2 mg/mL); 104% in series [2] (calculated concentration 20.9 mg/mL); 92% in series [2] (calculated concentration 40.6 mg/mL); 96% in series [2] (calculated concentration 100.6 mg/mL). Further, the “median aerodynamic diameter of aerosol particles” value in series [3] is on record as 1.3 µm. Further, in series [4], the “decomposition during thermal aerosolization” value is on record as “no decomposition”.
As to `CCN(CC)CCCC(C)Nc1ccnc2cc(Cl)ccc12` (centres unmarked) [chloroquine], the pEC50 in the series with 2019-nCoV is 5.95.

The values are drawn from patent US20230338285A1, “PHARMACEUTICAL COMPOSITION COMPRISING HYDROXYCHLOROQUINE AND USES THEREOF” (priority 2020, published 2023).
